Measurements as given in patent publication US11554127B2, “Synergistic antitumor effect of Bcl-2 inhibitor combined with rituximab and/or bendamustine or Bcl-2 inhibitor combined with CHOP” (ASCENTAGE PHARMA (SUZHOU) CO., LTD., priority 2018, dated 2023).
Read-outs that look alike come from different tables or passages of the source.

Tests used:
[1] = system: OCI-LY8 cells; test: in vitro experiment, sensitivity of OCI-LY8 cells; assay type: cell-based; conditions: OCI-LY8 human DLBCL cell line
Procedure: (1) The experimental method was as described in Example 1. In the in vitro experiment, OCI-LY8 cells were also human DLBCL cell lines sensitive to Compound 6 treatment, with an IC50 value of 0.006±0.002 μM. Therefore, this experiment used OCI-LY8 cells to establish a mouse xenograft tumor model (A. Esteve-Arenys et al. The BET bromodomain inhibitor CP1203 overcomes resistance to ABT-199 (venetoclax) by downregulation of BFL-1/A1 in in vitro and in vivo models of MYC+/BCL2+ double hit lymphoma. Oncogene 37(14). January 2018), and thereby evaluated the anti-tumor effect of Compound 6 in combination with rituximab.

[2] = system: Toledo; test: in vitro cell experiments, sensitivity of Toledo cell line; assay type: cell-based; conditions: Toledo human DLBCL cell line
[3] = system: DOHH2; test: in vitro cell experiments, sensitivity of DOHH2 cell line; assay type: cell-based; conditions: DOHH2 human follicular lymphoma cell line
[4] = system: human OCI-LY8 (DLBCL) mouse xenograft tumor; assay type: in vivo
Procedure: (§1) All animal experiments were strictly in accordance with the laboratory animal use and management practices of GenePharma Co., Ltd. and Ascentage Pharma Group Co., Ltd. The calculation of relevant parameters referred to the Chinese CFDA “Guidelines for Non-Clinical Research Techniques of Cytotoxic Antitumor Drugs”.
(§2) The animal body weight and tumor size were measured twice weekly during the experiment. The conditions and death of the animals were observed every day. Routine monitoring included the effects of tumor growth and treatment on normal animal behaviors, including activity, feeding and drinking situations, weight gain or loss, eyes, coat and other abnormalities in the experimental animals. The deaths and clinical symptoms observed during the experiment were recorded in the raw data. The entire operations of administration, measurement of mouse body weight and tumor volume were performed in a clean bench. Plasma and tumor tissues were collected, weighed and photographed after the end of the last administration according to the experimental protocol. Plasma and tumor samples were snap frozen and stored at −80° C.
(§3) Tumor volume (TV) was calculated as: TV=a×b2/2, in which a and b represented the length and width of the tumor as measured, respectively. The relative tumor volume (RTV) was calculated as: RTV=Vt/V1, in which V1 was the tumor volume at the time of grouping and administration, and Vt was the tumor volume measured on a day after administration. […] Change of body weight %=(measured body weight−body weight at the time of grouping)/body weight at the time of grouping×100%.
(§4) If the synergy factor was >1, there was a synergistic effect; if the synergistic factor=1, there was an additive effect; if the synergistic factor <1, there was an antagonistic effect.
Bendamustine was an FDA approved drug for the treatment of B-cell non-Hodgkin's lymphoma.

[5] = system: human Toledo (DLBCL) mouse xenograft tumor; assay type: in vivo; conditions: Compound 6 100 mg/kg p.o. qd×14 days; rituximab 4 mg/kg i.v. qw; day 15
Procedure: as §1, §2, §3, §4

[6] = system: human DOHH2 (FL) mouse xenograft tumor; assay type: in vivo; conditions: day 15; for Tumor remission on the 15th day after administration: CR: animals with CR/group; for Tumor remission on the 15th day after administration: PR: animals with PR/group
Procedure: as §1, §2, §3, §4
CHOP included: cyclophosphamide, 20 mg/kg, intraperitoneal injection, administered on the 1st and 9th days; doxorubicin, 2 mg/kg, intravenous injection, administered on the 1st day; vincristine, 0.1 mg/kg, intravenous injection, administered on the 1st and 9th days; prednisone, 0.5 mg/kg, orally administered on the 1st day. […] The injected dose was 10 mL/kg (0.2 mL/mouse). The agent was dissolved in saline. […] The agent was dissolved in saline. Vincristine (batch number 0708v1) was purchased from Shenzhen Main Luck Pharmaceuticals Inc. Vincristine was administered by intravenous injection at a dose of 10 mL/kg (0.2 mL/mouse). The agent was dissolved in saline. Prednisone (batch number M0412A) was purchased from Dalian Meilun Biotechnology Co., Ltd. Prednisone was administered by oral gavage at a dose of 10 mL/kg (0.2 mL/mouse). […] The dosage formulations were prepared freshly prior to use. The preparation and use of the dosage formulations were always carried out under sterile conditions.

[7] = Cpd. 6 25 mg/kg p.o. qd×15d, day 11
[8] = Cpd. 6 50 mg/kg p.o. qd×15d, alone or + rituximab 4 mg/kg i.v. qw×2 wks, day 11
[9] = Cpd. 6 100 mg/kg p.o. qd×15d, alone or + rituximab 4 mg/kg i.v. qw×2 wks, day 11
[10] = Table 3: Cpd. 6 100 mg/kg p.o. qd, bendamustine 25 mg/kg i.v., rituximab 10 mg/kg i.v., day 11
[11] = Table 4: Cpd. 6 100 mg/kg p.o. qd, bendamustine 25 mg/kg, rituximab 10 mg/kg
[12] = Table 4: Cpd. 6 100 mg/kg, bendamustine 25 mg/kg, rituximab 10 mg/kg
[13] = Table 5: Cpd. 6 100 mg/kg, CHOP regimen
[14] = rituximab alone 4 mg/kg i.v. qw×2 wks, day 11

O=C(NS(=O)(=O)c1ccc(NC[C@H]2COCCO2)c([N+](=O)[O-])c1)c1ccc(N2CCN(CC3=C(c4ccc(Cl)cc4)CC4(CCC4)CC3)CC2)cc1Oc1cnc2[nH]ccc2c1 [Compound 6, (S)-N-((4-(((1,4-dioxan-2-yl)methyl)amino)-3-nitrophenyl)sulfonyl)-2-((1H-pyrrolo[2,3-b]pyridin-5-yl)oxy)-4-(4-((6-(4-chlorophenyl)spiro[3.5]non-6-en-7-yl)methyl)piperazin-1-yl)benzamide]
IC50 [1]: 6 ± 2 nM | IC50 [2]: 49 ± 5 nM | sensitivity of cell line to Compound 6 treatment [3]: relatively sensitive | RTV on the 11th day after administration (mean ± standard error) [4, 7]: 6.87 ± 2.1 **^ | T/C (%) on the 11th day after administration [4, 7]: 37% | Tumor status on the 11th day after administration (remission rate %) [4, 7]: 0% | Tumor status on the 11th day after administration: CR ([4]; Cpd. 6 25 mg/kg p.o. qd×15d, day 11, animals with CR/group): 0/5 CR, | Tumor status on the 11th day after administration: PR ([4]; Cpd. 6 25 mg/kg p.o. qd×15d, day 11, animals with PR/group): 0/5 | RTV on the 11th day after administration (mean ± standard error) [4, 8]: 6.19 ± 1.86 | T/C (%) on the 11th day after administration [4, 8]: 33% | Tumor status on the 11th day after administration (remission rate %) ([4]; Cpd. 6 50 mg/kg, alone or + rituximab 4 mg/kg, day 11): 0% | Tumor status on the 11th day after administration: CR ([4]; Cpd. 6 50 mg/kg, alone or + rituximab 4 mg/kg, day 11, animals with CR/group): 0/5 CR, | Tumor status on the 11th day after administration: PR ([4]; Cpd. 6 50 mg/kg, alone or + rituximab 4 mg/kg, day 11, animals with PR/group): 0/5 | RTV on the 11th day after administration (mean ± standard error) [4, 9]: 5.54 ± 1.78 | T/C (%) on the 11th day after administration [4, 9]: 30% | Tumor status on the 11th day after administration (remission rate %) ([4]; Cpd. 6 100 mg/kg, alone or + rituximab 4 mg/kg, day 11): 0% | Tumor status on the 11th day after administration: CR ([4]; Cpd. 6 100 mg/kg, alone or + rituximab 4 mg/kg, day 11, animals with CR/group): 0/5 CR, | Tumor status on the 11th day after administration: PR ([4]; Cpd. 6 100 mg/kg, alone or + rituximab 4 mg/kg, day 11, animals with PR/group): 0/5 | RTV on the 11th day after administration (mean ± standard error) [4, 10]: 5.54 ± 1.78 | T/C (%) on the 11th day after administration [4, 10]: 30% | On the 11th day after administration (remission rate %) ([4]; Table 3: Cpd. 6 100 mg/kg, bendamustine 25 mg/kg, rituximab 10 mg/kg, day 11): 0% | On the 11th day after administration: CR ([4]; Table 3: Cpd. 6 100 mg/kg, bendamustine 25 mg/kg, rituximab 10 mg/kg, day 11, animals with CR/group): 0/5 CR, | On the 11th day after administration: PR ([4]; Table 3: Cpd. 6 100 mg/kg, bendamustine 25 mg/kg, rituximab 10 mg/kg, day 11, animals with PR/group): 0/5 | RTV on the 15th day after administration (mean ± standard error) [5]: 4.93 ± 0.41 ^ | T/C (%) on the 15th day after administration [5]: 38% | RTV on the 15th day after administration (mean ± standard error) [6, 11]: 3.06 ± 0.79 | T/C (%) on the 15th day after administration [6, 11]: 28% | Tumor remission rate on the 15th day after administration % [6, 12]: 0% | Tumor remission on the 15th day after administration: CR [6, 12]: 0/5 | Tumor remission on the 15th day after administration: PR [6, 12]: 0/5 | RTV on the 15th day after administration (mean ± standard error) ([6]; Table 5: Cpd. 6 100 mg/kg, CHOP (cyclophosphamide 20 mg/kg i.p. d1, d9; doxorubicin 2 mg/kg i.v. d1; vincristine 0.1 mg/kg i.v. d1, d9; prednisone 0.5 mg/kg p.o. d1)): 3.06 ± 0.79 | T/C (%) on the 15th day after administration [6, 13]: 28% | Tumor remission rate on the 15th day after administration % [6, 13]: 0% | Tumor remission on the 15th day after administration: CR [6, 13]: 0/5 | Tumor remission on the 15th day after administration: PR [6, 13]: 0/5

Rituximab [reference compound]
RTV on the 11th day after administration (mean ± standard error) [4, 14]: 1.38 ± 0.69 | T/C (%) on the 11th day after administration [4, 14]: 7% | Tumor status on the 11th day after administration (remission rate %) ([4]; rituximab alone 4 mg/kg, day 11): 80% | Tumor status on the 11th day after administration: CR ([4]; rituximab alone 4 mg/kg, day 11, animals with CR/group): 0/5 CR, | Tumor status on the 11th day after administration: PR ([4]; rituximab alone 4 mg/kg, day 11, animals with PR/group): 4/5 | Tumor status on the 11th day after administration: PR ([4]; rituximab alone 4 mg/kg, day 11, animals with PR/group, listed as rituximab): Four out of five | RTV on the 22nd day after administration (mean ± standard error) ([4]; rituximab alone 4 mg/kg, day 22, after drug discontinuance): 20.04 ± 5.38 ^ | RTV on the 15th day after administration (mean ± standard error) [5]: 8.99 ± 2.15 ^ | T/C (%) on the 15th day after administration [5]: 69%
